{"source": "paper PMC4065394", "about": "(The FEBS journal, 2014)", "key": {"R478A DXP synthase [1]": {"target": "T1, R478A DXP synthase (Escherichia coli, UniProt P77488, R478A)", "assay": "biochemical", "format": "binding, E. coli"}, "wild type DXP synthase [2]": {"target": "T2, wild type DXP synthase (Escherichia coli, UniProt P77488)", "conditions": "cited from earlier work"}, "wild type DXP synthase [3]": {"target": "T2, wild type DXP synthase", "assay": "Substrate binding by intrinsic total protein fluorescence", "set-up": "species or system E. coli"}, "Y392F DXP synthase [4]": {"target": "T3, Y392F DXP synthase (Escherichia coli, UniProt P77488, Y392F)", "assay": "Substrate binding by intrinsic total protein fluorescence", "set-up": "species or system E. coli"}, "Y392F DXP synthase [5]": {"target": "T3, Y392F DXP synthase", "assay": "CD titration with pyruvate", "format": "binding, E. coli"}, "R420A DXP synthase [6]": {"target": "T4, R420A DXP synthase (Escherichia coli, UniProt P77488, R420A)", "assay": "biochemical", "format": "binding, E. coli"}, "R478A DXP synthase [7]": {"target": "T1, R478A DXP synthase", "format": "biochemical, E. coli", "conditions": "for Km: R478A, coupled assay, 37 °C"}, "wild type DXP synthase [8]": {"target": "T2, wild type DXP synthase", "conditions": "read-out: Kd^pyruvate (apparent), CD spectroscopy; cited from earlier work"}, "Y392F DXP synthase [9]": {"target": "T3, Y392F DXP synthase", "format": "biochemical, E. coli", "conditions": "for Km: Y392F, coupled assay, 37 °C"}, "R478A DXP synthase [10]": {"target": "T1, R478A DXP synthase", "conditions": "+ D-GAP (2 mM in second syringe), 6 °C"}, "Y392F DXP synthase [11]": {"target": "T3, Y392F DXP synthase", "conditions": "− D-GAP, 6 °C, single turnover"}, "R478A DXP synthase [12]": {"target": "T1, R478A DXP synthase", "conditions": "− D-GAP, 6 °C, single turnover"}, "R420A DXP synthase [13]": {"target": "T4, R420A DXP synthase", "conditions": "− D-GAP, 6 °C, single turnover"}, "Y392F DXP synthase [14]": {"target": "T3, Y392F DXP synthase", "conditions": "+ D-GAP (200 μM in second syringe), 6 °C"}, "wild type DXP synthase [15]": {"target": "T2, wild type DXP synthase", "conditions": "6 °C, cited from earlier work"}, "wild type DXP synthase [16]": {"target": "T2, wild type DXP synthase", "conditions": "− D-GAP, 6 °C; cited from earlier work"}, "R420A DXP synthase [17]": {"target": "T4, R420A DXP synthase", "conditions": "+ D-GAP (2 mM in second syringe), 6 °C"}, "Y392F DXP synthase [18]": {"target": "T3, Y392F DXP synthase", "format": "biochemical, E. coli", "conditions": "CD at 290 nm, 37 °C"}, "R420A DXP synthase [19]": {"target": "T4, R420A DXP synthase", "assay": "Substrate binding by intrinsic total protein fluorescence", "set-up": "species or system E. coli", "conditions": "D-GAP up to 15 mM"}, "R478A DXP synthase [20]": {"target": "T1, R478A DXP synthase", "format": "binding, E. coli", "conditions": "D-GAP up to 15 mM"}, "R420A DXP synthase [21]": {"target": "T4, R420A DXP synthase", "assay": "Steady-state DXP formation monitored by CD at 290 nm", "format": "biochemical, E. coli", "conditions": "37 °C, D-GAP 0.25 – 2 mM, 1 mM pyruvate"}, "R478A DXP synthase [22]": {"target": "T1, R478A DXP synthase", "format": "biochemical, E. coli"}, "wild type DXP synthase [23]": {"target": "T2, wild type DXP synthase", "assay": "DX product formation from pyruvate and D-glyceraldehyde", "format": "biochemical, E. coli", "conditions": "30 mM D-glyceraldehyde and 5 mM pyruvate, 8 °C"}, "wild type DXP synthase [24]": {"target": "T2, wild type DXP synthase", "conditions": "30 mM D-glyceraldehyde, 8 °C"}, "R478A DXP synthase [25]": {"target": "T1, R478A DXP synthase", "format": "biochemical, E. coli", "conditions": "6 °C, from pyruvate and D-GAP"}, "Y392F DXP synthase [26]": {"target": "T3, Y392F DXP synthase", "format": "biochemical, E. coli", "conditions": "6 °C, from pyruvate and D-GAP"}, "wild type DXP synthase [27]": {"target": "T2, wild type DXP synthase", "conditions": "6 °C; cited from earlier work"}}, "note": "Several values for one entry are separate records, joined by “and”; a condition that tells them apart may be missing. Equal entries are not always repeated. Entries after “also recorded” stand apart in the source; their conditions may differ. Where two headings read alike, the source gives them in different places.", "data": [{"smiles": "CC(=O)C(=O)O", "note": "[pyruvate]", "values": [{"measurement": "Kd", "setting": "R478A DXP synthase [1]", "result": "80 ± 30", "unit": "µM"}, {"measurement": "Hill coefficient nH for pyruvate", "setting": "R478A DXP synthase [1]; R478A, CD, 5 °C", "result": "1.0 ± 0.2"}, {"measurement": "Km", "setting": "wild type DXP synthase [2]; read-out: Km^pyruvate, wild type", "result": "49 ± 8", "unit": "µM"}, {"measurement": "Kd", "setting": "wild type DXP synthase [3]", "result": "230 ± 70", "unit": "µM"}, {"measurement": "Kd", "setting": "Y392F DXP synthase [4]", "result": "230 ± 60", "unit": "µM"}, {"measurement": "Kd", "setting": "Y392F DXP synthase [5]", "result": 113, "unit": "µM"}, {"measurement": "Kd", "setting": "R420A DXP synthase [6]", "result": "37 ± 8", "unit": "µM"}, {"measurement": "Hill coefficient nH for pyruvate", "setting": "R420A DXP synthase [6]; R420A, CD, 5 °C", "result": "1.2 ± 0.3"}, {"measurement": "Km", "setting": "R478A DXP synthase [7]; read-out: Km^pyruvate", "result": "54 ± 7", "unit": "µM"}, {"measurement": "Kd", "setting": "wild type DXP synthase [8]", "result": 89.4, "unit": "µM"}, {"measurement": "increase in Km^pyruvate compared to wild type", "setting": "Y392F DXP synthase [9]; Y392F vs wild type", "result": 1.5, "unit": "fold"}, {"measurement": "Km", "setting": "Y392F DXP synthase [9]; read-out: Km^pyruvate", "result": "73 ± 4", "unit": "µM"}]}, {"smiles": "Cc1ncc(C[n+]2c(C(C)(O)C(=O)O)sc(CCOP(=O)(O)OP(=O)(O)O)c2C)c(N)n1", "note": "(stereo not drawn) [LThDP, C2α-lactylthiamin diphosphate]", "values": [{"measurement": "D-GAP-promoted LThDP Decarboxylation, k2", "setting": "R478A DXP synthase [10]", "result": "k2 = 36.5 ± 1.1 s^−1"}, {"measurement": "Formation of LThDP (re-synthesis), k1", "setting": "R478A DXP synthase [10]", "result": "k1 = 0.84 ± 0.004 s^−1"}, {"measurement": "Formation of LThDP, k1 (faster phase)", "setting": "Y392F DXP synthase [11]", "result": "1.06 ± 0.03", "unit": "s⁻¹"}, {"measurement": "Formation of LThDP, k1′ (slower phase)", "setting": "Y392F DXP synthase [11]", "result": "0.3 ± 0.01", "unit": "s⁻¹"}, {"measurement": "Formation of LThDP, k1 (faster phase)", "setting": "R478A DXP synthase [12]", "result": "0.85 ± 0.03", "unit": "s⁻¹"}, {"measurement": "Formation of LThDP, k1′ (slower phase)", "setting": "R478A DXP synthase [12]", "result": "0.29 ± 0.02", "unit": "s⁻¹"}, {"measurement": "Formation of LThDP, k1 (faster phase)", "setting": "R420A DXP synthase [13]", "result": "1.24 ± 0.01", "unit": "s⁻¹"}, {"measurement": "Formation of LThDP, k1′ (slower phase)", "setting": "R420A DXP synthase [13]", "result": "0.28 ± 0.002", "unit": "s⁻¹"}, {"measurement": "Formation of LThDP (re-synthesis), k1", "setting": "Y392F DXP synthase [14]", "result": "k1 = 0.82 ± 0.01 s^−1"}, {"measurement": "D-GAP-promoted LThDP Decarboxylation, k2", "setting": "wild type DXP synthase [15]", "result": "k2 = 42.0 ± 1.0 s^−1"}, {"measurement": "Formation of LThDP (re-synthesis), k1", "setting": "wild type DXP synthase [15]; + D-GAP", "result": "k1 = 0.68 ± 0.01 s^−1"}, {"measurement": "Formation of LThDP, k1 (faster phase)", "setting": "wild type DXP synthase [16]", "result": "1.39 ± 0.05", "unit": "s⁻¹"}, {"measurement": "Formation of LThDP, k1′ (slower phase)", "setting": "wild type DXP synthase [16]", "result": "0.16 ± 0.02", "unit": "s⁻¹"}, {"measurement": "LThDP Decarboxylation, k2", "setting": "wild type DXP synthase [16]", "result": "k2 = 0.07 ± 0.006 s^−1"}, {"measurement": "Formation of LThDP (re-synthesis), k1", "setting": "R420A DXP synthase [17]", "result": "k1 = 0.67 ± 0.003 s^−1"}]}, {"smiles": "O=C[C@H](O)COP(=O)(O)O", "note": "[D-GAP, D-glyceraldehyde 3-phosphate]", "values": [{"measurement": "Hill coefficient nH for D-GAP", "setting": "Y392F DXP synthase [18]", "result": "1.2 ± 0.1"}, {"measurement": "Km", "setting": "wild type DXP synthase [2]; read-out: Km^D-GAP", "result": "23.5 ± 1.7", "unit": "µM"}, {"measurement": "fluorescence quenching upon titration of D-GAP", "setting": "R420A DXP synthase [19]", "result": "negligible changes in fluorescence; also recorded: quenching of fluorescence was not observed"}, {"measurement": "fluorescence quenching upon titration of D-GAP", "setting": "R478A DXP synthase [20]", "result": "quenching of fluorescence was not observed; also recorded: negligible changes in fluorescence"}, {"measurement": "Kd", "setting": "wild type DXP synthase [3]", "result": "2000 ± 500", "unit": "µM"}, {"measurement": "saturation by D-GAP", "setting": "R420A DXP synthase [21]", "result": "saturation by D-GAP is not achieved; also recorded: Saturation was not achieved"}, {"measurement": "increase in Km^D-GAP compared to wild type DXP synthase", "setting": "R478A DXP synthase [7]; R478A vs wild type", "result": 70, "unit": "fold"}, {"measurement": "Km", "setting": "R478A DXP synthase [7]; read-out: Km^D-GAP", "result": "1600 ± 300", "unit": "µM"}, {"measurement": "Hill coefficient nH for D-GAP", "setting": "R478A DXP synthase [22]; CD at 290 nm, 37 °C", "result": "1.1 ± 0.1"}, {"measurement": "Km", "setting": "R478A DXP synthase [22]; read-out: Km^D-GAP, CD at 290 nm, 37 °C, D-GAP 0.15 – 2 mM, 1 mM pyruvate", "result": "530 ± 100", "unit": "µM"}, {"measurement": "decrease in kcat/Km^D-GAP compared to wild type", "setting": "Y392F DXP synthase [9]; Y392F vs wild type", "result": "near eight-fold decrease"}, {"measurement": "Km", "setting": "Y392F DXP synthase [9]; read-out: Km^D-GAP", "result": "210 ± 20", "unit": "µM"}]}, {"smiles": "CC(=O)[C@@H](O)[C@H](O)CO", "note": "[DX, 1-deoxy-D-xylulose]", "values": [{"measurement": "overall rate of DX product formation, k4", "setting": "wild type DXP synthase [23]", "result": "1.15 ± 0.7", "unit": "s⁻¹"}, {"measurement": "overall rate of DX product formation, k4′", "setting": "wild type DXP synthase [23]", "result": "0.5 ± 0.2", "unit": "s⁻¹"}]}, {"smiles": "O=C[C@H](O)CO", "note": "[D-glyceraldehyde]", "values": [{"measurement": "rate of LThDP decarboxylation promoted with D-glyceraldehyde, k2", "setting": "wild type DXP synthase [24]", "result": "21.5 ± 0.2 s⁻¹ and 21 s⁻¹"}]}, {"smiles": "CC(=O)[C@@H](O)[C@H](O)COP(=O)(O)O", "note": "[DXP, 1-deoxy-D-xylulose 5-phosphate]", "values": [{"measurement": "Formation of DXP, k4 (faster phase)", "setting": "R478A DXP synthase [25]", "result": "0.78 ± 0.08", "unit": "s⁻¹"}, {"measurement": "Formation of DXP, k4′ (slower phase)", "setting": "R478A DXP synthase [25]", "result": "0.26 ± 0.02", "unit": "s⁻¹"}, {"measurement": "Formation of DXP, k4 (faster phase)", "setting": "Y392F DXP synthase [26]", "result": "1.34 ± 0.12", "unit": "s⁻¹"}, {"measurement": "Formation of DXP, k4′ (slower phase)", "setting": "Y392F DXP synthase [26]", "result": "0.34 ± 0.01", "unit": "s⁻¹"}, {"measurement": "Formation of DXP, k4′ (slower phase)", "setting": "wild type DXP synthase [27]", "result": "0.29 ± 0.01", "unit": "s⁻¹"}]}]}
